Test results: ChEMBL document CHEMBL3301448, “MMV Malaria Box screening against Toxoplasma gondii and Entamoeba histolytica”
pIC50: −log10 of the molar value.

Experiments:
Entamoeba histolytica = assay: MMV: Primary screening was performed with each compound at a 30 uM final concentration and in triplicate in sealed 96-well polystyrene microtiter plates. Parasite inocula (100 ul) comprising 20000 parasites/ml were added to each well and grown at 37 degrees C in a humidified atmosphere of 5% CO2 for 72 h. Positive controls consisted of metronidazole at 1 mg/ml. The growth of E. histolytica trophozoites in each well was determined microscopically by measuring the diameters of the confluent cells in drug-containing wells relative to those in the nega- tive-control wells.; assay type: functional, organism-based
Toxoplasma gondii = assay: MMV: A total of 100ul of inoculum was added to each well (parasite/cell ratio, ~10:1; final volume, 200 ul). Six hours after inoculation, nonadherent parasites were removed, and 100 ul of complete DMEM (1% penicillin-streptomycin, 3% FBS) supplemented with inhibitors at different concentrations (2-fold serial dilutions starting from 30 uM) was added to all except the negative-control wells. Positive controls, consisting of pyrimethamine (PYR) and sulfadiazine (SDZ) (20-mg/ml stocks in DMSO), were tested at a 2mg/ml final concentration. Each test was performed in triplicate.; assay type: functional, organism-based; conditions: 6 h

SMILES | pIC50 (Entamoeba histolytica) | pIC50 (Toxoplasma gondii)
Cc1ccc(CSCc2ccc(C(=O)NC3CC3)o2)cc1 | < 4.52 | 4.65
O=C(NCCCN1CCC(N2CCCCC2)CC1)C1=Cc2cc(Br)ccc2OC1 | < 4.52 | < 4.52
COc1ccc(C2Sc3ccccc3N=C3C2=C(O)c2ccccc23)cc1 (stereo not drawn) | < 4.52 | < 4.52
CCN(Cc1ccccc1)C1CCN(Cc2cc(Br)ccc2O)CC1 | < 4.52 | < 4.52
CCN(CC)CCNc1ccnc2cc3ccccc3cc12 | < 4.52 | < 4.52
Cc1cccc(-n2ncc3c(O)nc(-n4nc(C)cc4NC(=O)c4cc5ccccc5o4)nc32)c1 | < 4.52 | < 4.52
COc1ccc(C2c3ccc4ccccc4c3Oc3ncn(CCCn4ccnc4)c(=N)c32)cc1OC (stereo not drawn) | < 4.52 | < 4.52
COc1cc(C(=O)Nc2ccc(-c3nc4ccccc4[nH]3)cc2)cc(OC)c1OC | < 4.52 | < 4.52
COCCN(C(=O)Cc1cccs1)C(C(=O)NCc1ccc(OC)cc1)c1ccc(C(C)C)cc1 (stereo not drawn) | < 4.52 | < 4.52
COc1ccc(-c2cc3c(nn2)-c2ccccc2C3=O)cc1 | < 4.52 | < 4.52
Cc1ccc(C)c(Cn2c(N3CCC(C(=O)NCc4cccs4)CC3)nc3ccccc32)c1 | < 4.52 | < 4.52
COc1ccc(-c2cc(=O)oc3c4c(ccc23)OCN(Cc2ccc(F)cc2)C4)cc1 | < 4.52 | < 4.52
Cc1cccc(N2C(=O)C3C(C2=O)C2(c4ccccc4)C(=O)C3(c3ccccc3)C(c3ccc4c(c3)OCO4)=C2c2ccc3c(c2)OCO3)c1 (stereo not drawn) | < 4.52 | < 4.52
C=C(C)CCC(C)N1CCC(N2CCC(C(=O)NCCc3ccccc3)CC2)CC1 (stereo not drawn) | < 4.52 | 4.57
CCOC(=O)C1=C(c2ccccc2)N=c2sc(=Cc3cc(C)n(-c4ccc(F)cc4)c3C)c(=O)n2C1c1cccc(OC)c1OC (stereo not drawn) | < 4.52 | < 4.52
CCCCOc1ccc(C(=O)Nc2cc(C)on2)cc1 | < 4.52 | < 4.52
CC(=O)NCCc1nc2ccccc2n1Cc1ccc(C(C)C)cc1 | < 4.52 | < 4.52
CC(NCc1ccccc1)c1cc(Cl)ccc1O (stereo not drawn) | < 4.52 | 4.67
CC(=O)c1sc(NC(=O)Nc2ccc(C)cc2C)nc1C | < 4.52 | < 4.52
CCOc1ccc(-c2nc(NC(=O)c3cccc(S(C)(=O)=O)c3)sc2C)cc1 | < 4.52 | < 4.52
N#Cc1nc(Cc2cccc3ccccc23)oc1N1CCN(C(c2ccccc2)c2ccccc2)CC1 | < 4.52 | < 4.52

SMILES | pIC50 (Entamoeba histolytica) | pIC50 (Toxoplasma gondii)
Cc1cc(Nc2ccc(OCc3ccccc3)cc2)nc2cc(O)ccc12 | < 4.52 | < 4.52
Oc1ccc(Br)cc1CN1CCN(Cc2ccc(Cl)cc2)CC1 | < 4.52 | 4.84
O=C(NC(c1ccccc1)c1ccc2cccnc2c1O)c1ccccc1 (stereo not drawn) | < 4.52 | < 4.52
CCOc1ccccc1CNC(=O)C1c2ccccc2C(=O)N(CC(C)C)C1c1cccs1 (stereo not drawn) | < 4.52 | < 4.52
CCCCc1ccc(NS(=O)(=O)c2cc3c4c(c2)CCN4C(=O)CC3)cc1 | < 4.52 | < 4.52
C=CC12CCN(CC1)C(C(O)c1ccnc3ccc(OC)cc13)C2 (stereo not drawn) | < 4.52 | < 4.52
CN(C)CCCNc1c2ccccc2nc2ccccc12 | < 4.52 | 4.59
FC(F)(F)c1ccc(Nc2nnnc3ccccc23)cc1 | < 4.52 | < 4.52
CCCCCCc1cc(O)c2c3c(c(=O)oc2c1)CCC(C)C3 (stereo not drawn) | < 4.52 | < 4.52
CC(C)CCNCC(O)Cn1c2ccccc2c2ccccc21 (stereo not drawn) | < 4.52 | < 4.52
O=C(Nc1ccc(CN2CCOCC2)cc1)c1ccc(-c2ccc(Br)cc2)o1 | < 4.52 | < 4.52
CCN(CC)CCNc1ncnc2c1[nH]c1ccc(Cl)cc12 | < 4.52 | < 4.52
Cc1ccc(C)c(-c2csc(Nc3ccc(C)c(C)c3)n2)c1 | < 4.52 | < 4.52
CCOc1cc(CNC(C)C(O)c2ccccc2)cc(Cl)c1OCC (stereo not drawn) | < 4.52 | < 4.52
COc1ccc(C2N(C)c3ccccc3N2C)cc1 | < 4.52 | < 4.52
Cc1c(C)n(CC(O)CNC2CCCCC2C)c2ccccc12 (stereo not drawn) | < 4.52 | < 4.52
OC1=C2C(=Nc3ccccc3SC2c2ccccc2)c2ccccc21 (stereo not drawn) | < 4.52 | < 4.52
Cc1ccc(NC(=O)Nc2cccc(Cl)c2)cc1F | < 4.52 | < 4.52
CCOC(=O)C1=C(C)N=c2sc(=Cc3ccccc3O)c(=O)n2C1c1ccc(OC)c2ccccc12 (stereo not drawn) | < 4.52 | < 4.52
COc1ccc(C=C2SC(Nc3ccc(F)cc3)=NC2=O)c(OC)c1 | < 4.52 | < 4.52
COc1ccc(-c2nonc2NC(=O)c2cccc(Cl)c2)cc1OC | < 4.52 | < 4.52

SMILES | pIC50 (Entamoeba histolytica) | pIC50 (Toxoplasma gondii)
CC1=C(CC(=O)c2cccc([N+](=O)[O-])c2)C(=O)c2ccccc2C1=O | < 4.52 | < 4.52
COc1cccc(NC(=O)[C@H](C(C)C)n2c(=O)[nH]c3ccccc3c2=O)c1 | < 4.52 | < 4.52
COc1cccc(Cn2c(Oc3ccccc3)nc3c2c(=O)n(C)c(=O)n3C)c1 | < 4.52 | < 4.52
COc1ccc(OC)c(C2C3=C(CC(C)(C)CC3=O)N(c3ccc(Cl)c(Cl)c3)C3=C2C(=O)CC(C)(C)C3)c1 | < 4.52 | < 4.52
COc1ccc2c(=O)cc(C(Cl)(Cl)Cl)oc2c1 | < 4.52 | 5.19
O=C(Nc1ccc(Br)cc1)Nc1cccc(Cl)c1 | < 4.52 | < 4.52
Cc1nc2ccccc2c(O)c1CC=C(Cl)Cl | < 4.52 | < 4.52
COc1ccc2nc(C)cc(Nc3ccc(Cl)cc3)c2c1 | < 4.52 | < 4.52
CCCC(c1nnnn1C1CCCCC1)N1CCN(C(=O)c2ccco2)CC1 (stereo not drawn) | < 4.52 | < 4.52
CCCCCC(=O)N1c2ccccc2N=C2CC(c3ccc(OC)c(OC)c3)CC(O)=C2C1c1ccc(C(F)(F)F)cc1 (stereo not drawn) | < 4.52 | < 4.52
Cc1cc(NC(=O)C2c3ccccc3C(=O)N(CC(C)C)C2c2cccs2)no1 (stereo not drawn) | < 4.52 | 4.68
Cc1cc(C)cc(Nc2cc(C)nc3nc(C(F)(F)F)nn23)c1 | < 4.52 | < 4.52
CCOc1c(Cl)cc(CNCC(O)c2ccccc2)cc1OC (stereo not drawn) | < 4.52 | < 4.52
CCn1c(CN2CCN(Cc3ccccc3)CC2)nc2cc(NC(=O)c3cccs3)ccc21 | < 4.52 | < 4.52
CCOc1ccc(Nc2c3ccccc3nc3ccccc23)cc1 | < 4.52 | < 4.52
Cc1cc(N2CCCC2)nc(Nc2ccc(NC(=O)CCc3ccccc3)cc2)n1 | < 4.52 | < 4.52
CN(C)c1ccc(N2C(N)=NC(N)=NC2(C)C)cc1 | < 4.52 | 4.54
Oc1ccc(-c2nc(-c3ccc4oc5ccc(-c6[nH]c(-c7ccc(O)cc7)nc6-c6ccccc6)cc5c4c3)c(-c3ccccc3)[nH]2)cc1 | < 4.52 | < 4.52
COc1cc(C(=O)Nc2nc3c(cc4c5c(cccc53)CC4)s2)cc(OC)c1OC | < 4.52 | < 4.52
CCOc1ccccc1NC(=O)CN1CCN(C(=O)c2ccco2)CC1 | < 4.52 | 6.72
COC(=O)c1ccc(C2C3=C(O)CC(c4ccc(F)cc4)CC3=Nc3ccccc3N2C(=O)c2ccccc2)cc1 (stereo not drawn) | < 4.52 | < 4.52

SMILES | pIC50 (Entamoeba histolytica) | pIC50 (Toxoplasma gondii)
CCN1CCCC1CNc1[nH]cnc2c3cc(Cl)ccc3nc1-2 (stereo not drawn) | < 4.52 | < 4.52
COc1nc(Nc2ccc(C(C)C)cc2)nc(OC)n1 | < 4.52 | < 4.52
Oc1ccccc1CN1CCN(C(c2ccccc2)c2ccccc2)CC1 | < 4.52 | < 4.52
Cc1ccc(C2CC(C(F)(F)F)n3nc(C(=O)N4CCN(C(c5ccccc5)c5ccccc5)CC4)cc3N2)cc1 (stereo not drawn) | < 4.52 | < 4.52
CCn1c(SCC(=O)Nc2cc(C(F)(F)F)ccc2Cl)nc2ccccc2c1=O | < 4.52 | < 4.52
CCn1nc(-c2ccc(C(=O)OC)cc2)nc2c(=O)n(C)c(=O)nc1-2 | < 4.52 | < 4.52
CNCCCNc1ccnc2cc(Cl)ccc12 | < 4.52 | < 4.52
CC1CCCCN1CCCNC(=O)c1ccc2c(c1)sc1nc(-c3ccc(F)cc3)cn12 (stereo not drawn) | < 4.52 | < 4.52
OC1CCCCC1C1(NC(=S)Nc2ccccc2)CCCCC1 (stereo not drawn) | < 4.52 | < 4.52
Nc1ccn([C@@H]2O[C@H](CO)[C@@H](O)[C@H]2O)c(=O)n1 [CYTIDINE] | < 4.52 | < 4.52
CCN(CC)c1cc(C)c2cc(NC(=O)c3cccc(OC)c3)ccc2n1 | < 4.52 | < 4.52
O=C1CC(O)(C(F)(F)C(F)(F)F)Oc2ccccc21 (stereo not drawn) | < 4.52 | < 4.52
CC1CC(C)CN(C(=O)c2ccc(Cl)cc2Cl)C1 (stereo not drawn) | < 4.52 | < 4.52
CC1CC2=C(CC1CNCCCN(C)C)C(C)(C)CCC2 (stereo not drawn) | < 4.52 | < 4.52
CSC1=NC(=Nc2c(C)cccc2C)C2(CCC(C(C)(C)C)CC2)N1c1ccc(Cl)cc1 (stereo not drawn) | < 4.52 | < 4.52
CCOc1cc2c(cc1OCC)C(c1cc(OC)c(O)cc1Cl)NCC2 (stereo not drawn) | < 4.52 | < 4.52
CN1CCN(c2ncnc3c2[nH]c2ccc(Cl)cc23)CC1 | < 4.52 | < 4.52
Nc1ccc(-c2nc3cc(Oc4ccc(Oc5ccc6[nH]c(-c7ccc(N)cc7)nc6c5)cc4)ccc3[nH]2)cc1 | < 4.52 | < 4.52
CCOc1cc2c(cc1OCC)C(c1cc(C)c(O)c(C)c1)NCC2 (stereo not drawn) | < 4.52 | 4.89
Cc1ccc(N2C(=O)C3C(C2=O)C2(c4ccccc4)C(=O)C3(c3ccccc3)C(c3ccccc3)=C2c2ccccc2)cc1 (stereo not drawn) | < 4.52 | < 4.52
Cc1cccc(Nc2nc(N)c3ccccc3n2)c1 | < 4.52 | < 4.52
